Assay results published in the NIST ThermoML archive (doi:10.1007/s10765-009-0579-1).
Numbers after ± are expanded uncertainties.

Experiment: xn = mol fraction of the nth substance listed
Settings: 423.15 K, Gas; for viscosity: Oscillating disk viscometry; for mass density: Pycnometric method

CC(F)(F)Cl [1-chloro-1,1-difluoroethane] + FC(F)Cl
Settings | mass density [kg/m3] | viscosity [mPa·s]
102.1 kPa, x2 = 0.2615 | 2.829 ± 0.29 | 0.01579 ± 0.00052
102.2 kPa, x2 = 0.5169 | 2.723 ± 0.29 | 0.01631 ± 0.00053
346.2 kPa, x2 = 0.5169 | 9.354 ± 0.29 | 0.01634 ± 0.00053
390.7 kPa, x2 = 0.7502 | 10.18 ± 0.29 | 0.01687 ± 0.00055
394 kPa, x2 = 0.2615 | 11.13 ± 0.29 | 0.01581 ± 0.00052
642 kPa, x2 = 0.5169 | 17.67 ± 0.29 | 0.01639 ± 0.00054
685.5 kPa, x2 = 0.7502 | 18.14 ± 0.29 | 0.01697 ± 0.00055
686.5 kPa, x2 = 0.2615 | 19.8 ± 0.29 | 0.01588 ± 0.00052
935.8 kPa, x2 = 0.5169 | 26.24 ± 0.29 | 0.01646 ± 0.00054
978.6 kPa, x2 = 0.2615 | 28.81 ± 0.29 | 0.01594 ± 0.00053
1026 kPa, x2 = 0.7502 | 27.65 ± 0.29 | 0.01702 ± 0.00055
1230 kPa, x2 = 0.5169 | 35.16 ± 0.3 | 0.01657 ± 0.00054
1273 kPa, x2 = 0.2615 | 38.54 ± 0.3 | 0.01604 ± 0.00053
1368 kPa, x2 = 0.7502 | 37.56 ± 0.3 | 0.01711 ± 0.00055
1537 kPa, x2 = 0.5169 | 44.54 ± 0.3 | 0.01663 ± 0.00054
1569 kPa, x2 = 0.2615 | 48.6 ± 0.3 | 0.01618 ± 0.00053
1706 kPa, x2 = 0.7502 | 47.76 ± 0.3 | 0.01724 ± 0.00056
1832 kPa, x2 = 0.5169 | 54.69 ± 0.3 | 0.01677 ± 0.00054
1878 kPa, x2 = 0.2615 | 59.81 ± 0.3 | 0.01632 ± 0.00053
2055 kPa, x2 = 0.7502 | 58.73 ± 0.3 | 0.01731 ± 0.00056
2158 kPa, x2 = 0.2615 | 70.63 ± 0.3 | 0.0165 ± 0.00054
2158 kPa, x2 = 0.5169 | 65.98 ± 0.3 | 0.01694 ± 0.00055
2415 kPa, x2 = 0.7502 | 70.79 ± 0.3 | 0.0175 ± 0.00056
2436 kPa, x2 = 0.2615 | 81.74 ± 0.31 | 0.01671 ± 0.00054
2444 kPa, x2 = 0.5169 | 76.64 ± 0.31 | 0.01711 ± 0.00055
2719 kPa, x2 = 0.7502 | 81.34 ± 0.31 | 0.01769 ± 0.00057
2740 kPa, x2 = 0.5169 | 88.1 ± 0.31 | 0.01736 ± 0.00056
2797 kPa, x2 = 0.2615 | 98.1 ± 0.31 | 0.01703 ± 0.00055
3055 kPa, x2 = 0.5169 | 101.2 ± 0.3 | 0.01765 ± 0.00057
3152 kPa, x2 = 0.2615 | 115.5 ± 0.3 | 0.01743 ± 0.00056
3159 kPa, x2 = 0.7502 | 97.7 ± 0.31 | 0.01797 ± 0.00057
3389 kPa, x2 = 0.5169 | 116.1 ± 0.3 | 0.01791 ± 0.00057
3440 kPa, x2 = 0.2615 | 131.6 ± 0.3 | 0.01785 ± 0.00057
3481 kPa, x2 = 0.7502 | 110.3 ± 0.3 | 0.01829 ± 0.00058
3680 kPa, x2 = 0.2615 | 145.8 ± 0.3 | 0.01822 ± 0.00058
3703 kPa, x2 = 0.5169 | 131.2 ± 0.3 | 0.0183 ± 0.00058
3855 kPa, x2 = 0.7502 | 126.4 ± 0.3 | 0.01863 ± 0.00059
3921 kPa, x2 = 0.2615 | 160.9 ± 0.3 | 0.01868 ± 0.00059
3992 kPa, x2 = 0.5169 | 146.2 ± 0.3 | 0.01874 ± 0.00059
4203 kPa, x2 = 0.7502 | 142 ± 0.3 | 0.01894 ± 0.0006
4227 kPa, x2 = 0.2615 | 184.1 ± 0.4 | 0.01939 ± 0.00061
4325 kPa, x2 = 0.5169 | 165.2 ± 0.3 | 0.01926 ± 0.0006
4504 kPa, x2 = 0.2615 | 207.1 ± 0.4 | 0.02023 ± 0.00063
4560 kPa, x2 = 0.7502 | 159.4 ± 0.3 | 0.01947 ± 0.00061
4634 kPa, x2 = 0.5169 | 184.7 ± 0.3 | 0.01988 ± 0.00062
4740 kPa, x2 = 0.2615 | 230.5 ± 0.4 | 0.0212 ± 0.00065
4895 kPa, x2 = 0.5169 | 203.4 ± 0.4 | 0.02048 ± 0.00063
4897 kPa, x2 = 0.7502 | 176.4 ± 0.3 | 0.01997 ± 0.00062
4956 kPa, x2 = 0.2615 | 254.1 ± 0.4 | 0.0222 ± 0.00067
5173 kPa, x2 = 0.5169 | 223.6 ± 0.4 | 0.02124 ± 0.00065
5183 kPa, x2 = 0.2615 | 285.1 ± 0.4 | 0.02361 ± 0.0007
5286 kPa, x2 = 0.2615 | 294.5 ± 0.4 | 0.02439 ± 0.00072
5301 kPa, x2 = 0.7502 | 200.1 ± 0.3 | 0.02057 ± 0.00063
5380 kPa, x2 = 0.5169 | 240.7 ± 0.4 | 0.02187 ± 0.00066
5605 kPa, x2 = 0.7502 | 219.3 ± 0.4 | 0.02121 ± 0.00065
5612 kPa, x2 = 0.5169 | 261.9 ± 0.4 | 0.02295 ± 0.00069
5795 kPa, x2 = 0.5169 | 280.3 ± 0.4 | 0.02357 ± 0.0007
5936 kPa, x2 = 0.7502 | 242.2 ± 0.4 | 0.02202 ± 0.00067
6270 kPa, x2 = 0.7502 | 267.2 ± 0.4 | 0.02299 ± 0.00069
